Data set [1] is described as follows: AC without DC offset (AC + passive) transport across human epidermal membrane in side-by-side diffusion cell. Format: in vitro ADME. The conditions noted are these: target skin resistance 2 kΩ; for Papp: all data points from 100 to 330 min. The source says: The same protocol was used to reduce the skin electrical resistance to 2 kΩ as described in the AC+DC Offset method. […] Permeants and sampling protocol were the same as in the Constant Current and AC+DC Offset sessions as described above.

Data set [2] can be described thus: Constant current DC iontophoretic transport across human epidermal membrane in side-by-side diffusion cell. As to the method:
Iontophoretic transport studies were carried out in a side-by-side two-chamber diffusion cell (diffusional surface area of around 0.8 cm^2 and chamber volume of 2 mL) with HEM at 37° C. The apparent permeability coefficients (P) in each experiment were calculated by: [formula]
where A is the membrane surface area, t is time, Q is the amount of permeant transported into the receiver chamber, and CD is the concentration of permeant in the donor chamber. The pH of the solutions in the donor and receiver chambers was checked after each iontophoresis run to detect possible water hydrolysis.
Constant current DC transport experiments were carried out at the current level of 0.13 mA/cm^2 using a constant current iontophoretic device (phoresor II Auto, Model No. PM 850, Iomed, Inc., Salt Lake City, Utah) with Ag—AgCl electrodes. […] HEM resistance during iontophoresis was measured by monitoring the electrical potential drop across the membrane using two flexible Luggin capillaries which were inserted into the donor and receiver compartments of the diffusion cells. Each of the Luggin capillaries contained a calomel electrode connected to a voltmeter. The HEM resistance could be determined during iontophoresis according the output current level and the voltmeter readings.
A trace amount of [^14C] […] One ml of sample was taken from the receiver chamber approximately every 30 minutes and replaced with the fresh PBS. A 10 μl sample was taken from the donor chamber every hour. Samples were mixed with 10 ml scintillation cocktail (Ultima Gold™, Packard Instrument Co., Meriden, Conn.) and assayed by a dual-labeled liquid scintillation counter (Parkard TriCarb™ Model 1900 TR Liquid Scintillation Analyzer).

Data set [3] is described as follows: AC + DC offset iontophoretic transport across human epidermal membrane in side-by-side diffusion cell. Format: in vitro ADME. An excerpt: The output AC voltage was manually adjusted between 3 to 8 volts to keep the skin resistance at 2 kΩ (±10%) and the DC offset value was kept constant at 0.25 V during the entire period of the experiment. The same permeants and sampling protocol were used as described in the Constant Current Session.

Where [4] appears, read: 0.13 mA/cm^2 DC, data points between 100 and 330 minutes.
Setting [5] is: AC + DC, 50 Hz, DC offset 250 mV, target skin resistance 2 kΩ, data points between 100 and 330 minutes.

In the case of `CC[N+](CC)(CC)CC.[Br-]` [TEA^+, tetraethylammonium bromide], the Papp in data set [1] (human, AC (50 Hz) w/o DC offset, 28 points (4 samples), read-out: TEA^+ permeability coefficient, mean) is 1.08 ×10⁻⁶ cm/s. The results for the “Slope of normalized TEA^+ flux versus time (linear regression)” value in data set [2] (setting [4]) and in data set [3] (setting [5]) were 6 × 10^−9 cm sec^−1 min^−1 and 2 × 10^−9 cm sec^−1 min^−1, respectively.
With `OC[C@@H](O)[C@@H](O)[C@H](O)[C@H](O)CO` [Mannitol, mannitol], the “Slope of normalized mannitol flux versus time (linear regression)” value was 7 × 10^−11 cm sec^−1 min^−1 in data set [1] (AC 50 Hz, no DC offset, data points between 100 and 330 minutes); 4 × 10^−10 cm sec^−1 min^−1 in data set [2] (setting [4]); 4 × 10^−11 cm sec^−1 min^−1 in data set [3] (setting [5]). The Papp came to 0.0985 ×10⁻⁶ cm/s in data set [1] (human, AC (50 Hz) w/o DC offset, 28 points (4 skin samples), read-out: Mannitol permeability coefficient, mean); 0.16 ×10⁻⁶ cm/s in data set [2] (human); 0.16 ×10⁻⁶ cm/s in data set [3] (human, AC (50 Hz) with 0.25 V DC offset, target skin resistance 2 kΩ, all data points from 100 to 330 min, 36 points (6 skin samples), read-out: Mannitol permeability coefficient, mean). Besides, the Papp at 180 min turned out to be 0.101 ×10⁻⁶ cm/s in data set [1] (human, AC (50 Hz) w/o DC offset, one time point (180 min), 4 samples, read-out: Mannitol permeability coefficient, mean); 0.15 ×10⁻⁶ cm/s in data set [2] (human); 0.17 ×10⁻⁶ cm/s in data set [3] (human, AC (50 Hz) with 0.25 V DC offset, target skin resistance 2 kΩ, one time point (180 min), 6 samples, read-out: Mannitol permeability coefficient, mean). In addition, the “Rate of change of mannitol flux, fold higher with constant current DC than with AC without DC Offset” value in data set [2] (constant current DC versus AC without DC Offset) was 5.7 fold. In addition, the “Rate of change of mannitol flux, fold higher with constant current DC than with AC+DC Offset” value in data set [2] (constant current DC versus AC+DC Offset) was 10 fold. In addition, the “Rate of change of mannitol flux, lower with AC+DC Offset method compared with AC without DC Offset method” value in data set [3] (AC+DC Offset versus AC without DC Offset) was 57%.

The record behind these values is patent publication US6496728B2, “Methods for extracting substances using alternating current” (University of Utah Research Foundation, priority 2000, dated 2002).
